Holding throughout (format): cell-based
For experiment [1], the target named is T1, hGPR65 (Homo sapiens, UniProt Q8IYL9).
T1 construct: expressed in transfected cells; host or cells: HeLa (ATCC CCL-2), lentiviral transduction, pLX317
In words: cAMP detection in HeLa expression cell line, hGPR65. The settings on record: for Emax: HeLa, relative to 100uM forskolin (100%) and DMSO (0%), read-out: hGPR Max Activity %. In a few lines: (§1)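 Compound was dispensed from a 10 mM DMSO stock, and puromycin-selected HeLa lines carrying lentiviral V5-tagged receptor were added at 1500 cells/well in pH 7.2 stimulation buffer. After 30 min stimulation at room temperature, cells were lysed and detection ran 1 h in the dark before cAMP TR-FRET reading.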

A further experiment addresses T2, mGPR65 (Mus musculus, UniProt Q61038).
T2 construct: expressed in transfected cells; host or cells: HeLa (ATCC CCL-2), lentiviral transduction, pLX317
In words: cAMP detection in HeLa expression cell line, mGPR65. The note with it: for Emax: HeLa, relative to 100uM forskolin (100%) and DMSO (0%), read-out: mGPR Max Activity %. Summed up:
as §1

In the next experiment the target is T3, hGPR65-SmBiT (Homo sapiens, UniProt Q8IYL9).
T3 construct: expressed in transfected cells; host or cells: Expi293F (Gibco), transient transfection
In words: Nano-BiT target engagement, LgBiT-mGs recruitment to hGPR65-SmBiT in Expi293F cells. Summed up: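 Expi293F cells co-transfected (500 ng each plasmid) with receptor-SmBiT and LgBiT-mGs constructs, assayed 24 h later in 0.1% PBS-BSA pH 7.4 at room temperature. Luminescence from Nano-Glo Live Cell Reagent recorded in 90 s cycles, with 10 baseline cycles before compound addition.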

For a further experiment, the target named is T4, mGPR65-SmBiT (Mus musculus, UniProt Q61038).
T4 construct: expressed in transfected cells; host or cells: Expi293F (Gibco), transient transfection
In words: Nano-BiT target engagement, LgBiT-mGs recruitment to mGPR65-SmBiT. The settings on record: 10 μM. The method, then: Target engagement was measured in Expi293F (Gibco, 100044202) cells using the Nano-Glo Live Cell Assay System (Promega, N2011). Nano-BiT plasmids were cloned from GPR65-, GPR4-, and GPR68-Tango plasmids. GPR65-Tango (Addgene plasmid # 66370; http://n2t.net/addgene:66370; RRID:Addgene_66370), GPR4-Tango (Addgene plasmid # 66358; http://n2t.net/addgene:66358; RRID:Addgene_66358), and GPR68-Tango (Addgene plasmid # 66371; http://n2t.net/addgene:66371; RRID:Addgene_66371) were gifts from Bryan Roth. Expi293F cells were transfected 1 day before kinetics with 500 ng of each plasmid using ExpiFectamine 293 Transfection Kit (Gibco, A14525). After 24 hours, cells were collected, washed, and resuspended in room temperature 0.1% PBS-BSA, adjusted to pH 7.4 using 1 M NaOH. Cells were transferred to white opaque 96-well microplates (100 μl per well, PerkinElmer, 6005290), followed by addition of the Nano-Glo Live Cell Reagent (25 μl per well). Baseline luminescence was measured for 10 cycles (1 cycle = 90 s) before adding compounds. All luminescence measurements were made on BMG Labtech PHERAstar FSX. Data analysis was performed using GraphPad Prism.

Experiment [2] has as its target T1, hGPR65. In words: cAMP detection (Lance Ultra), GPR65 KO HeLa reconstituted with hGPR65; 21K screen dose confirmation. The settings on record: HeLa GPR65 KO + hGPR65, pH 7.1, 30 min, normalized to DMSO and 100 μM forskolin; read-out: WT EC50.
[3] abbreviates: 1st hGPR column pair, NA = no activity.
The mark [4] stands for this setting: 2nd hGPR column pair, NA = no activity.
Setting [5] is: 2nd mGPR column pair, NA = no activity.

Like-named read-outs stand apart in the source and are kept apart here.

T3 sequence (Q8IYL9 whole entry): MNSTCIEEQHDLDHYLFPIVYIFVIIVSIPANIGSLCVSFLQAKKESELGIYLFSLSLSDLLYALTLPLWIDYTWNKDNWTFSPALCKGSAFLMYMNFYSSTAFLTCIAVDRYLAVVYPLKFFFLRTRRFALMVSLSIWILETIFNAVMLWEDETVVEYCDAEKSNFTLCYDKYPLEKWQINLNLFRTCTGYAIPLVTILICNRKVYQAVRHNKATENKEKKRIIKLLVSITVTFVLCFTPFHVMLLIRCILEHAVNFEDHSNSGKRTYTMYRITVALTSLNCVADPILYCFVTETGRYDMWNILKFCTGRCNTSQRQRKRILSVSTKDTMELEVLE
T1 sequence (Q8IYL9 whole entry): as above
T2 sequence (Q61038 whole entry): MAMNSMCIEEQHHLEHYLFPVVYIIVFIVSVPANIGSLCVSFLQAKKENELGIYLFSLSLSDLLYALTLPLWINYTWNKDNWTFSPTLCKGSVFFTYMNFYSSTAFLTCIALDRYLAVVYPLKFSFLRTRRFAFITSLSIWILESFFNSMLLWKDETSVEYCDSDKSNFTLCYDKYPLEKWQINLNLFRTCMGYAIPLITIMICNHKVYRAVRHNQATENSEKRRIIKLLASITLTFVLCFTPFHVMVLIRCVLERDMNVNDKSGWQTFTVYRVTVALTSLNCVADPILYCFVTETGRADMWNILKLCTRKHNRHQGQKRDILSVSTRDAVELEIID
T4 sequence (Q61038 whole entry): as above

As a reminder, the EC50 is the concentration giving half of the maximal effect. As for `Cc1ccc(NC(=O)c2cnn3c(O)cc(-c4ccc(COC(C)C)cc4)nc23)nc1` [BRD5075, O=C(NC1=NC=C(C)C=C1)C2=C3N(N=C2)C(O)=CC(C4=CC=C(COC(C)C)C=C4)=N3], the “mode of action from pH-dependent cAMP production” value on hGPR65 [1] (0 to 50 μM, pH range of 6.6 to 7.6) was “PAMs”. On hGPR65 [1] (1.56 μM, pH 7.2), the “activity for hGPR65 among prioritized molecules” value was “highest activity”. In addition, the Emax came to 80.3% at hGPR65 [1] (setting [3]), 78.6% at hGPR65 [1] (setting [4]), 69.6% at mGPR65 (setting [5]) and 70.8% on mGPR65 (NA = no activity). The EC50 at hGPR65 [1] (hGPR EC50 (uM), NA = no activity) was found to be 0.377 µM; at hGPR65 [1] (hGPR EC50 (uM), pH 7.2, 30 min), 1.2 µM; at hGPR65 [1] (hGPR EC50, NA = no activity), 1.1 µM; on hGPR65 [1] (hGPR EC50, pH 7.2, 30 min), 0.699 µM; on mGPR65 (mGPR EC50 (uM), 2nd mGPR column pair, NA = no activity), 0.952 µM; at mGPR65 (mGPR EC50 (uM), first pair of columns, pH 7.2, 30 min) it was 1.04 µM. In addition, the EC50 on mGPR65 (mGPR EC50 (uM), second pair of columns, pH 7.2, 30 min) worked out at 0.997 µM; on mGPR65 (mGPR EC50 (uM), NA = no activity) it was 0.892 µM. In addition, the “cAMP activity, hGPR65” value on hGPR65 [1] (pH 7.2) is “at least 40%”. Further, the “activity for mGPR65 among prioritized molecules” value on mGPR65 (1.56 μM, pH 7.2) is listed as “highest activity”. Moreover, the “cAMP response against mGPR65 among prioritized compounds” value on mGPR65 (HeLa cells) is “highest cAMP response”. For the same molecule, at mGPR65 (pH 7.2), the “cAMP activity, mGPR65” value was “at least 40%”. The “effect of concentration on mGs recruitment” value at hGPR65-SmBiT (0-50 μM) is given as “dose-dependent effect”. At hGPR65-SmBiT (10 μM), the “mGs recruitment / engagement of hGPR65” value is “showed engagement”. For the same molecule, the “activity after HCl versus water, hGPR65” value at hGPR65-SmBiT (10 μM, HCl or H2O at cycle 10) is recorded as “showed activity when preceded by the addition of HCl but not water”. The “mGs recruitment / engagement of mGPR65” value at mGPR65-SmBiT was “showed engagement”. Besides, the “activity after HCl versus water, mGPR65” value on mGPR65-SmBiT (HCl or H2O at cycle 10) was “showed activity when preceded by the addition of HCl but not water”.
As for `CN1N=C(SCc2ccc(Cl)cc2Cl)Sc2c1cnn(C)c2=O` [BTB09089, reference compound], the concentration giving a half-maximal response (EC50) came to 6000 nM at hGPR65 [2]; 6.35 µM at hGPR65 [1] (1st hGPR column pair, NA = no activity, read-out: hGPR EC50); 1.37 µM on hGPR65 [1] (2nd hGPR column pair, NA = no activity, read-out: hGPR EC50); 0.458 µM at mGPR65 (2nd mGPR column pair, NA = no activity, read-out: mGPR EC50). Further, the Emax worked out at 53.5% on hGPR65 [1] (setting [3]), 31.1% on hGPR65 [1] (setting [4]), 76.4% on mGPR65 (setting [5]) and 82.8% on mGPR65 (NA = no activity). Further, the “mGs recruitment / engagement of hGPR65” value at hGPR65-SmBiT (10 μM) is on record as “limited activity toward hGPR65”. Also, on mGPR65-SmBiT, the “mGs recruitment / engagement of mGPR65” value is reported as “increases in luminescence independent of pH changes”.

Source of the values: PMC11259170, “Small-molecule probe for IBD risk variant GPR65 I231L alters cytokine signaling networks through positive allosteric modulation” (Science Advances, 2024).
